Measured values reported in patent EP4737442A1, “DIAMINOVINYLIDENE DERIVATIVE OR SALT THEREOF, PEST CONTROL AGENT CONTAINING SAID COMPOUND, AND METHODS FOR USING THESE” (ADEKA CORPORATION, priority 2023, dated 2025).

How the values were obtained:
Plutella xylostella = experiment: Insecticidal test against Plutella xylostella; conditions: in Brassica rapa, 144 h, read-out: corrected mortality (%), assessment
Description: Six days after the immersion in the drug solution, the number of surviving insects was examined.

Laodelphax striatellus = experiment: Insecticidal test against Laodelphax striatellus; conditions: in Oryza sativa, 192 h, read-out: corrected mortality (%), assessment
Dirofilaria immitis = experiment: Effect test on Dirofilaria immitis (larval motility inhibition); conditions: 168 h, read-out: motility inhibition rate
[1] = system: Frankliniella occidentalis; experiment: Insecticidal test against Frankliniella occidentalis; conditions: in Phaseolus vulgaris, 96 h, read-out: corrected mortality (%), assessment
Description: Female adults of Frankliniella occidentalis were inoculated onto Phaseolus vulgaris leaf pieces, and after allowing them to lay eggs for one day, the female adults were removed. […] Four days after the treatment, the number of surviving larvae of this species larvae was examined.

`CNC(Nc1ccc(F)nc1)=C1C(=O)CC(c2ccc(C(F)(F)F)cc2)NC1=O` (stereo not drawn) [3-11] gave a mortality at 500 µg/mL (Plutella xylostella) of 100%, a mortality at 500 ppm (Laodelphax striatellus) of 100% and an inhibition at 100 µM (Dirofilaria immitis) of at least 50%.
In the case of `Cn1nc(C2CC(=O)C(=C(Nc3ccc(F)cc3)Nc3ccc(F)nc3)C(=O)N2)cc1OC(F)F` (stereo not drawn) [3-22], the mortality at 500 µg/mL (Plutella xylostella) is reported as 100%, the mortality at 500 ppm (Laodelphax striatellus) is reported as 100% and the inhibition at 100 µM (Dirofilaria immitis) is reported as at least 50%.
With `CNC(Nc1ccc(F)nc1)=C1C(=O)CC(c2nc(-c3ccc(F)cc3)cs2)NC1=O` (stereo not drawn) [3-23] the mortality at 500 µg/mL (Plutella xylostella) was 100%, the mortality at 500 ppm (Laodelphax striatellus) was 100% and the inhibition at 100 µM (Dirofilaria immitis) was at least 50%.
For `NC(Nc1ccc(F)cc1)=C1C(=O)CC(c2cnc(Cl)c(Br)c2)NC1=O` (stereo not drawn) [3-42], the mortality at 500 µg/mL (Plutella xylostella) was 100%, the mortality at 500 ppm (Laodelphax striatellus) was 100% and the inhibition at 100 µM (Dirofilaria immitis) was at least 50%.
Compound `COC(=O)N1C(=O)C(=C(Nc2ccc(F)cc2)Nc2ccc(F)cc2)C(=O)CN1c1ccc(C#N)nc1` [6-4] has a mortality at 500 ppm (Laodelphax striatellus) of 100%, a mortality at 500 µg/mL [1] of 100% and an inhibition at 100 µM (Dirofilaria immitis) of at least 50%.
With `COCCOC(=O)N1C(=O)C(=C(Nc2cccc(F)c2)Nc2cccc(F)c2)C(=O)CN1c1ccc(C#N)nc1` [6-6] the mortality at 500 µg/mL (Plutella xylostella) was 100%, the mortality at 500 ppm (Laodelphax striatellus) was 100% and the mortality at 500 µg/mL [1] was 100%. The inhibition at 100 µM (Dirofilaria immitis) was at least 50%.
Work on `COCCOC(=O)N1C(=O)C(=C(Nc2ccc(OC)cc2)Nc2ccc(OC)cc2)C(=O)CN1c1ccc(C#N)nc1` [6-7] yielded a mortality at 500 ppm (Laodelphax striatellus) of 100% and an inhibition at 100 µM (Dirofilaria immitis) of at least 50%.
`CNC(Nc1ccc(F)cc1)=C1C(=O)CN(c2cnc(C#N)c(Br)c2)N(C(=O)OC)C1=O` [6-20] showed a mortality at 500 ppm (Laodelphax striatellus) of 100%, a mortality at 500 µg/mL [1] of 100% and an inhibition at 100 µM (Dirofilaria immitis) of at least 50%.
With `CNC(Nc1ccc(F)c(F)c1)=C1C(=O)CN(c2ccc(Br)nc2)N(C(=O)OC)C1=O` [6-22] the mortality at 500 ppm (Laodelphax striatellus) was 100% and the inhibition at 100 µM (Dirofilaria immitis) was at least 50%.
Compound `CCOC(=O)N1C(=O)C(=C(NC)Nc2cccc(F)c2)C(=O)CN1c1ccc(C#N)c(Cl)c1` [6-30] has a mortality at 500 µg/mL [1] of 100% and an inhibition at 100 µM (Dirofilaria immitis) of at least 50%.
Compound `CNC(Nc1ccc(F)cc1)=C1C(=O)CN(c2ccc(C#N)nc2)N(Cc2cnc(Cl)s2)C1=O` [6-38] has a mortality at 500 µg/mL [1] of 100% and an inhibition at 100 µM (Dirofilaria immitis) of at least 50%.
Work on `CNC(Nc1ccc(F)cc1)=C1C(=O)CN(c2cnc(C#N)c(Br)c2)N(C)C1=O` [6-47] yielded a mortality at 500 ppm (Laodelphax striatellus) of 100%, a mortality at 500 µg/mL [1] of 100% and an inhibition at 100 µM (Dirofilaria immitis) of at least 50%.
For `CC(C)(C)c1ccc(CSC(Nc2ccc(F)nc2)=C2C(=O)CC(c3cnc(Cl)c(Br)c3)NC2=O)cc1` (stereo not drawn) [9-32], the mortality at 500 µg/mL (Plutella xylostella) was 100%, the mortality at 500 ppm (Laodelphax striatellus) was 100% and the inhibition at 100 µM (Dirofilaria immitis) was at least 50%.
Compound `CSC(Nc1ccc(F)nc1)=C1C(=O)CC(c2cc(OC(F)F)n(C)n2)NC1=O` (stereo not drawn) [9-35] has a mortality at 500 µg/mL (Plutella xylostella) of 100%, a mortality at 500 ppm (Laodelphax striatellus) of 100% and a mortality at 500 µg/mL [1] of 100%. For the same compound, the inhibition at 100 µM (Dirofilaria immitis) was at least 50%.
For `CSC(Nc1ccc(F)nc1)=C1C(=O)CC(c2nc(-c3ccc(F)cc3)cs2)NC1=O` (stereo not drawn) [9-36], the mortality at 500 µg/mL (Plutella xylostella) was 100%, the mortality at 500 ppm (Laodelphax striatellus) was 100% and the mortality at 500 µg/mL [1] was 100%. The inhibition at 100 µM (Dirofilaria immitis) was at least 50%.
`CC(C)(C)OC(=O)N1CC(=O)C(=C(Nc2ccc(F)cn2)Nc2ccc(F)cn2)C(=O)C1` [compound No. 4-10, tertiary butyl 4-(bis((5-fluoropyridin-2-yl)amino)methylene)-3,5-dioxopiperidine-1-carboxylate] was tested, and the mortality at 500 ppm (Laodelphax striatellus) was 100%.
Work on `NC(Nc1ccc(F)cc1)=C1C(=O)CCCN(c2ccc(C(F)(F)F)cc2)C1=O` [compound No. 5-1, 3-(amino((4-fluorophenyl)amino)methylene)-1-(4-(trifluoromethyl)phenyl)azepane-2,4-dione] yielded a mortality at 500 ppm (Laodelphax striatellus) of 100%.
For `COC(=O)N1C(=O)C(=C(NCC(F)F)Nc2ccc(F)cc2)C(=O)CN1c1ccc(C#N)nc1` [compound No. 6-15, methyl 2-(6-cyanopyridin-3-yl)-5-(((2,2-difluoroethyl)amino) ((4-fluorophenyl)amino)methylene)-4,6-dioxotetrahydropyridazine-1(2H)-carboxylate], the mortality at 500 ppm (Laodelphax striatellus) was 100% and the inhibition at 100 µM (Dirofilaria immitis) was at least 50%.
